These results are taken from article PMC4685510, “A Cell Biologist’s Field Guide to Aurora Kinase Inhibitors” (Frontiers in Oncology, 2015).

Holding throughout (experiment): biochemical
Type in all cases: biochemical

The target of experiment [1] is T1, 363 human kinases (including Aurora A/B/C) (Homo sapiens, UniProt O15264).
T1 sequence (O15264 1-365): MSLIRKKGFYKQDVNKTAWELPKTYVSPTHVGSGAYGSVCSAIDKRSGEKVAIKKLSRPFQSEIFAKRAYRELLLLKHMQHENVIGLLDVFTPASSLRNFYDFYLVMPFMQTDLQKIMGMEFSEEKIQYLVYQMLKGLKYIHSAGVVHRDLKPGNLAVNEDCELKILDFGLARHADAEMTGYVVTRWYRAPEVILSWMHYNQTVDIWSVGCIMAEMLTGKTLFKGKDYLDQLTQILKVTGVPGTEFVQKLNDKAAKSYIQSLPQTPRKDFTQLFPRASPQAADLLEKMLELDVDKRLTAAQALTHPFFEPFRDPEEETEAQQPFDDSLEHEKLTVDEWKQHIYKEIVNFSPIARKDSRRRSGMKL
The settings on record: P38d/MAPK13; for remaining activity at 0.1 µM: 100 nM; for remaining activity at 0.1 µM / remaining activity at 0.5 µM: read-out: % Enzyme Activity (relative to DMSO controls).
Source text: (§1) However, the Aurora A/B selectivity ratios derived from our in vitro and in vivo data can be compared to prioritize inhibitors.

Experiment [2] deals with 363 human kinases (including Aurora A/B/C) (Homo sapiens, UniProt P07949). Conditions: RET; for remaining activity at 0.1 µM: 100 nM; for remaining activity at 0.1 µM / remaining activity at 0.5 µM: read-out: % Enzyme Activity (relative to DMSO controls).
Source text: as §1
Experiment [3] deals with T2, 363 human kinases (including Aurora A/B/C) (Homo sapiens, UniProt P21709).
T2 sequence (P21709 26-976): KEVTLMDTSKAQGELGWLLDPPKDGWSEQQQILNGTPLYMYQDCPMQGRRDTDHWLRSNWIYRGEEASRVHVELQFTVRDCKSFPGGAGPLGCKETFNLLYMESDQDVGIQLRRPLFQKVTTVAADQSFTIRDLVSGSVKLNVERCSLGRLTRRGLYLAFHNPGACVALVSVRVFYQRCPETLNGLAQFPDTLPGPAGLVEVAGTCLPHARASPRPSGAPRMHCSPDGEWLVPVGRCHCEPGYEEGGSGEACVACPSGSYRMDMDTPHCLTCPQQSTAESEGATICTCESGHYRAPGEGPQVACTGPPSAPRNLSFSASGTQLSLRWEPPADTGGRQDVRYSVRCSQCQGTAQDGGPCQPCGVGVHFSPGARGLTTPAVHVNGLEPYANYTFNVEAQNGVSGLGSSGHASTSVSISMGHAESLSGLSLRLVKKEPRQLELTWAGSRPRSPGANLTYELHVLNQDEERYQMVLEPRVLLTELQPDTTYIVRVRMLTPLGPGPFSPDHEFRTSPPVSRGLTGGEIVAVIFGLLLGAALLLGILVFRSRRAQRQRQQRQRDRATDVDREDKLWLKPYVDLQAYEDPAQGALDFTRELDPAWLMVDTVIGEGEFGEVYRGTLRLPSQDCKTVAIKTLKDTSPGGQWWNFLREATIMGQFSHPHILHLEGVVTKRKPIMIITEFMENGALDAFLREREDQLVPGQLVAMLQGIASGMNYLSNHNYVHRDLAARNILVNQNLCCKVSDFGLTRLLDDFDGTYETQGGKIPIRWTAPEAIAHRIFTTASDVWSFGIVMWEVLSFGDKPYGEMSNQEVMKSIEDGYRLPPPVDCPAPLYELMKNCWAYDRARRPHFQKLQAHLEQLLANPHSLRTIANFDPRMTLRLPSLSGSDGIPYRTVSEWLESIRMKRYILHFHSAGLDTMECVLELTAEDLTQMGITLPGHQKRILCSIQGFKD
The settings on record: EPHA1, [ATP] 20 µM; for remaining activity at 0.1 µM: 100 nM; for remaining activity at 0.1 µM / remaining activity at 0.5 µM: read-out: % Enzyme Activity (relative to DMSO controls).
Source text: as §1

Experiment [4] concerns the target 363 human kinases (including Aurora A/B/C) (Homo sapiens, UniProt P23458). Conditions: JAK1; for remaining activity at 0.1 µM: 100 nM; for remaining activity at 0.1 µM / remaining activity at 0.5 µM: read-out: % Enzyme Activity (relative to DMSO controls).
Source text: as §1
In experiment [5] the target is T3, 363 human kinases (including Aurora A/B/C) (Homo sapiens, UniProt Q08881).
T3 sequence (Q08881 1-620): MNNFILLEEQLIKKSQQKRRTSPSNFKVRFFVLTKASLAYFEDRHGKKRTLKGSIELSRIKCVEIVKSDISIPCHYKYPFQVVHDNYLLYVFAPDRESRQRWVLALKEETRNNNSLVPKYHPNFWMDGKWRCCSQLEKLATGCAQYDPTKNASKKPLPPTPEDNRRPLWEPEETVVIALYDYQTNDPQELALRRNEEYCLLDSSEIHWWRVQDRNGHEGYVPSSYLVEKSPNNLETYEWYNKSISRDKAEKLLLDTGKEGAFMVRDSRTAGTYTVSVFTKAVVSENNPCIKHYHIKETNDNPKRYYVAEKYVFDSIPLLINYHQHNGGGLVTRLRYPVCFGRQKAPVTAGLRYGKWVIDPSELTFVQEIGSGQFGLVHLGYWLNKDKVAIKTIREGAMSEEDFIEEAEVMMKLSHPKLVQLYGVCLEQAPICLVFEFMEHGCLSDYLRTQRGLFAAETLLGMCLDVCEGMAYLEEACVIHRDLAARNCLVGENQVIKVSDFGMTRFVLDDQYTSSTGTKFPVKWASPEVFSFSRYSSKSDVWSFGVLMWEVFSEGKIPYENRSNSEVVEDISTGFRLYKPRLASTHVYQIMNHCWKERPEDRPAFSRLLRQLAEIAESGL
Conditions: ITK; for remaining activity at 0.1 µM: 100 nM; for remaining activity at 0.1 µM / remaining activity at 0.5 µM: read-out: % Enzyme Activity (relative to DMSO controls).
Source text: as §1

Experiment [6] deals with 363 human kinases (including Aurora A/B/C) (Homo sapiens, UniProt Q15759). Conditions: P38b/MAPK11; for remaining activity at 0.1 µM: 100 nM; for remaining activity at 0.1 µM / remaining activity at 0.5 µM: read-out: % Enzyme Activity (relative to DMSO controls).
Source text: as §1
In experiment [7] the target is 363 human kinases (including Aurora A/B/C) (Homo sapiens, UniProt Q9H2G2). The settings on record: SLK/STK2; for remaining activity at 0.1 µM: 100 nM; for remaining activity at 0.1 µM / remaining activity at 0.5 µM: read-out: % Enzyme Activity (relative to DMSO controls).
Source text: as §1
The target in experiment [8] is 363 human kinases (including Aurora A/B/C) (Homo sapiens, UniProt Q9UK32). The settings on record: RSK4; for remaining activity at 0.1 µM: 100 nM; for remaining activity at 0.1 µM / remaining activity at 0.5 µM: read-out: % Enzyme Activity (relative to DMSO controls).
363 human kinases (including Aurora A/B/C) (Homo sapiens, UniProt Q9UK32), sequence (Q9UK32 whole entry): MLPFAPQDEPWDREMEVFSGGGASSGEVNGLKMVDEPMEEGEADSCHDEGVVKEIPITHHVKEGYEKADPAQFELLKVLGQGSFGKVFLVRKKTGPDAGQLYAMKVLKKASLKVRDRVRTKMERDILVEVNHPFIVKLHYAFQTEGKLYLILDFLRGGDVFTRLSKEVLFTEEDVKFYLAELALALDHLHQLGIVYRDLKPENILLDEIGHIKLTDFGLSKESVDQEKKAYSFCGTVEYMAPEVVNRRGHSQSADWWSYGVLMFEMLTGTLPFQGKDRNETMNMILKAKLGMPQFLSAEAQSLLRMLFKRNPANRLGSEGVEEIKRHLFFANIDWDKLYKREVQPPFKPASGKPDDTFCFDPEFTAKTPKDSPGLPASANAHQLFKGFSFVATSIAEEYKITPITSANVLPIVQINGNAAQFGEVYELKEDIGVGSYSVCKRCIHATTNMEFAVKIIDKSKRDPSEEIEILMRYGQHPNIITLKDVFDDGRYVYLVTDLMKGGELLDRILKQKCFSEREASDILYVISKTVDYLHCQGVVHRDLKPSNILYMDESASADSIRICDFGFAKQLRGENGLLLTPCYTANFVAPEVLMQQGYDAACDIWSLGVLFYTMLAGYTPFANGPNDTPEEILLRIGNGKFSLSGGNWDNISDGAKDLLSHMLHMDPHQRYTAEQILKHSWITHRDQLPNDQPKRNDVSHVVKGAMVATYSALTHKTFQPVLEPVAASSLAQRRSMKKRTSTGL
Source text: as §1

363 human kinases (including Aurora A/B/C) (Homo sapiens, UniProt P23458), sequence (P23458 whole entry): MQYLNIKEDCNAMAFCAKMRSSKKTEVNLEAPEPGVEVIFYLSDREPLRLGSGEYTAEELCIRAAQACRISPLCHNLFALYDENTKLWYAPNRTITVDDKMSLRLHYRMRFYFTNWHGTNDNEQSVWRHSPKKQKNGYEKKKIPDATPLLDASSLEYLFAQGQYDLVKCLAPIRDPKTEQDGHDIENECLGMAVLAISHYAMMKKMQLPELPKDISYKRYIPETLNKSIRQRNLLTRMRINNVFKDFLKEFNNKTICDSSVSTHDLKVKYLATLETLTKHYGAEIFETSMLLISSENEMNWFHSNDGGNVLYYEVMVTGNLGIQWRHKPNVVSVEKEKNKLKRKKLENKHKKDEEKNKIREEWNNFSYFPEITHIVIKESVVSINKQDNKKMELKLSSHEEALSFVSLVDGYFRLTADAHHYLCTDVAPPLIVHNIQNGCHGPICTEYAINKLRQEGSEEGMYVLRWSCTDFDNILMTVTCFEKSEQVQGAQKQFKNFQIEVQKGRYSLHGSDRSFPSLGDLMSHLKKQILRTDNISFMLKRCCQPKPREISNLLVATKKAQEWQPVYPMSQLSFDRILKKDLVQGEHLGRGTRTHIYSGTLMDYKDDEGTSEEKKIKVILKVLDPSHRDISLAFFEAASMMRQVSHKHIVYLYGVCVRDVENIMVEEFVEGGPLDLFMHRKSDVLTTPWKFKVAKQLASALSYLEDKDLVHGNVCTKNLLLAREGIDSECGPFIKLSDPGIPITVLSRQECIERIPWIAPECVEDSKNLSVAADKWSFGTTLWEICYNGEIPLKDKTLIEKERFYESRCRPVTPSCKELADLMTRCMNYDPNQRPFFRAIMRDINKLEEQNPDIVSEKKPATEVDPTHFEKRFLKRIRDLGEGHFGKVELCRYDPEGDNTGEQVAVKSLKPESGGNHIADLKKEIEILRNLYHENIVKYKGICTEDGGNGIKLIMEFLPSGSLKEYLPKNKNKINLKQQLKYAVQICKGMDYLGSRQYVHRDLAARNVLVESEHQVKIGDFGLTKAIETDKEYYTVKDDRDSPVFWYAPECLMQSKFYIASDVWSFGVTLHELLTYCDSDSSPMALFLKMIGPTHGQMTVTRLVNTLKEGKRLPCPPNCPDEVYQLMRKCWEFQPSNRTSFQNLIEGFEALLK
363 human kinases (including Aurora A/B/C) (Homo sapiens, UniProt Q15759), sequence (Q15759 whole entry): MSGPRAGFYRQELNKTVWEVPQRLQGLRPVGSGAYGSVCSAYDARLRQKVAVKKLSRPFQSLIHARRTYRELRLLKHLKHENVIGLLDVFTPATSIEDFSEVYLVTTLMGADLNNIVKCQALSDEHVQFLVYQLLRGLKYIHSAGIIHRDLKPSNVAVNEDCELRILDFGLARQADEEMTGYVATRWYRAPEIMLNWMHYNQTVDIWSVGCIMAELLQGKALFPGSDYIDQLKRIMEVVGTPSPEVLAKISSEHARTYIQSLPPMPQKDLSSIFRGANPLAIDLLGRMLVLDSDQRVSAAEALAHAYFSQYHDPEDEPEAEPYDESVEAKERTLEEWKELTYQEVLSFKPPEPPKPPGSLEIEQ
363 human kinases (including Aurora A/B/C) (Homo sapiens, UniProt P07949), sequence (P07949 29-1114): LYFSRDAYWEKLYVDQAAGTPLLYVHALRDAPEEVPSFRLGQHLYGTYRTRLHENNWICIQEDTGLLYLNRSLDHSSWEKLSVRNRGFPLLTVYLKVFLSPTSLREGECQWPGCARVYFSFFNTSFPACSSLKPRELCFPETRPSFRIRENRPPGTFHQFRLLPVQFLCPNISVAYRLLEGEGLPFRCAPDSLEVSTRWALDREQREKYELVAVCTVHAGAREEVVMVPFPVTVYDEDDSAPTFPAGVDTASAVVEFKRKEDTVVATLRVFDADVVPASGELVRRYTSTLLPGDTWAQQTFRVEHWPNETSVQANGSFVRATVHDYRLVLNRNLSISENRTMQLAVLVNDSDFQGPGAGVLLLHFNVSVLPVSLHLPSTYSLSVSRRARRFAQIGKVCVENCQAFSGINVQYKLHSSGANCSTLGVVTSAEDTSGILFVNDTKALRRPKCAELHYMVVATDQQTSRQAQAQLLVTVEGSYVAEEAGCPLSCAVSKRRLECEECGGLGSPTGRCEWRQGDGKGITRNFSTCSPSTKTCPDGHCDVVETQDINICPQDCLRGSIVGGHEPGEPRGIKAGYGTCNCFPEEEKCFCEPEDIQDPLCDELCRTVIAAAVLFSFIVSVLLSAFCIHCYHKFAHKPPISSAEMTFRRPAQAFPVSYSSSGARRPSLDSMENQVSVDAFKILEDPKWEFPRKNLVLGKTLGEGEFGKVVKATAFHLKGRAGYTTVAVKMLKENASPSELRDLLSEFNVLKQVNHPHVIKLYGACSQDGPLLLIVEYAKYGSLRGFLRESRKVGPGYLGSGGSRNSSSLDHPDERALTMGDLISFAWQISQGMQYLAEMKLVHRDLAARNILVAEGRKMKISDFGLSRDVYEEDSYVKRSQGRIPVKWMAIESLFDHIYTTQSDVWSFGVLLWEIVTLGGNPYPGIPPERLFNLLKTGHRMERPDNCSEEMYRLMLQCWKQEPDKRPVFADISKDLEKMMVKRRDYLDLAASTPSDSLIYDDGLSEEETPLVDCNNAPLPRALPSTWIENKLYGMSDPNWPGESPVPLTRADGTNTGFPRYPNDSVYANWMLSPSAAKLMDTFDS
363 human kinases (including Aurora A/B/C) (Homo sapiens, UniProt Q9H2G2), sequence (Q9H2G2 whole entry): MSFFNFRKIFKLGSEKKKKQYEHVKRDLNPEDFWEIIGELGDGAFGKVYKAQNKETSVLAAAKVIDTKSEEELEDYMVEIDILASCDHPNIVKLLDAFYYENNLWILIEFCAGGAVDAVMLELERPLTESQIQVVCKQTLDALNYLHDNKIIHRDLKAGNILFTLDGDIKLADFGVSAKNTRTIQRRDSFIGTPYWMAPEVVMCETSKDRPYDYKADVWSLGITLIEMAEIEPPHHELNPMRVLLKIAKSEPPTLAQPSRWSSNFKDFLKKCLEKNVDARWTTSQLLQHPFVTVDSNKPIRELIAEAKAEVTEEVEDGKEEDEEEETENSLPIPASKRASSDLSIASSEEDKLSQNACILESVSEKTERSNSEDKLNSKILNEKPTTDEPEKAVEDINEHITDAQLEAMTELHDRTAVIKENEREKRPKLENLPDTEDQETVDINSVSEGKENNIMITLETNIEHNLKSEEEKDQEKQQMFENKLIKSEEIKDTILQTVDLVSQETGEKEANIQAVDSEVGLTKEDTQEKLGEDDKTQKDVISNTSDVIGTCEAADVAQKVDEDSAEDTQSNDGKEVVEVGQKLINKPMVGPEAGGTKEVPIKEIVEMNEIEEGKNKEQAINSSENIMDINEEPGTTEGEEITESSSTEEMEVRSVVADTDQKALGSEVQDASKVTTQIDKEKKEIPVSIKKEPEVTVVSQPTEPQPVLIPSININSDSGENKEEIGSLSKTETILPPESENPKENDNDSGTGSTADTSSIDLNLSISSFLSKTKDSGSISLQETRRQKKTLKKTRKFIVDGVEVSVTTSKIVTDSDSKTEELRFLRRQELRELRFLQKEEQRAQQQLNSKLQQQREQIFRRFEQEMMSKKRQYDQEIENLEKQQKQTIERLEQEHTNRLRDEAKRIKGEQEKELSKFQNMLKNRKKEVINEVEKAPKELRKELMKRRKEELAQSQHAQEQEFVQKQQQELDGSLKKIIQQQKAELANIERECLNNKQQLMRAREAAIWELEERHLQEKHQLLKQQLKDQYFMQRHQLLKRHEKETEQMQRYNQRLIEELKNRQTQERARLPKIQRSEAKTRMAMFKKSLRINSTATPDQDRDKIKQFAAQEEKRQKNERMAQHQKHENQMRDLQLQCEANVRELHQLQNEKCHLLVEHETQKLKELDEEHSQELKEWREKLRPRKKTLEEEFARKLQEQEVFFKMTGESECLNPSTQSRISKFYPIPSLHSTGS

In the case of `CCn1cc(-c2ccnc3[nH]c(-c4cccc(CN(C)C)c4)cc23)c(-c2ccc(NC(=O)N(C)C)cc2)n1` [GSK1070916], the remaining activity at 0.1 µM came to 91.7% in experiment [1]; 97.8% in experiment [2]; 85.1% in experiment [3]; 95.8% in experiment [4]; 77.7% in experiment [5]; 94.3% in experiment [6]. Further, the values for the remaining activity at 0.1 µM in experiment [7] and in experiment [8] were 95.2% and 93.6%, respectively.
Turning to `O=C(O)[C@]1(Cc2cccc(Nc3nccs3)n2)CC[C@@H](Oc2cccc(Cl)c2F)CC1` [MK-5108], the remaining activity at 0.1 µM in experiment [1] stood at 98.5%; in experiment [2], 17.4%; in experiment [3], 47.6%; in experiment [4] it was 99.4%; in experiment [5], 89%; in experiment [6], 102%. Also, the remaining activity at 0.1 µM in experiment [7] is 53.5%; in experiment [8], 94.2%. In addition, the remaining activity at 0.5 µM in experiment [1] (500 nM) is 82.6%; in experiment [2] (500 nM) it was 3.79%; in experiment [3] (500 nM), 19.1%; in experiment [4] (500 nM), 61.6%; in experiment [5] (500 nM) it was 46.3%; in experiment [6] (500 nM), 96%. Also, the values for the remaining activity at 0.5 µM in experiment [7] (500 nM) and in experiment [8] (500 nM) were 16.7% and 90.1%, respectively.
Regarding `O=C(c1cccc(Cl)c1F)N1CCN(Cc2cccc(Nc3nccs3)n2)CC1` [MK-8745], the “% Enzyme Activity (relative to DMSO controls)” value was 96.82% in experiment [1] (500 nM); 84.03% in experiment [2] (500 nM); 58.24% in experiment [3] (500 nM); 103.50% in experiment [4] (500 nM); 102.90% in experiment [5] (500 nM); 92.96% in experiment [6] (500 nM). The “% Enzyme Activity (relative to DMSO controls)” value was found to be 77.19% in experiment [7] (500 nM) and 94.73% in experiment [8] (500 nM). For the same compound, the remaining activity at 0.5 µM in experiment [1] (500 nM) was determined as 100%; in experiment [2] (500 nM), 84.5%; in experiment [3] (500 nM), 58.3%; in experiment [4] (500 nM), 104%; in experiment [5] (500 nM) it was 104%; in experiment [6] (500 nM) it was 93.2%. Also, the remaining activity at 0.5 µM in experiment [7] (500 nM) came out at 77.7%; in experiment [8] (500 nM), 97.1%.
